Where “and” joins values, the source holds several entries; their conditions need not be identical. Equal values may be shown once.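 Following 48 hours of exposure in 96-well plates, responses at five concentrations were used to interpolate endpoints linearly. Abbreviation: GI50, concentration required for 50% inhibition of growth. TGI denotes the concentration required for complete inhibition of growth.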
Columns and labels:
Test in all cases: inhibition of tumour cell growth, NCI panel, 48 h
[1] = system: A549 NSCLC
[2] = system: A498 renal
[3] = system: NCI-H226 lung
[4] = system: HOP-62 NSCLC
[5] = system: HT29 colon
[6] = system: SF-539 CNS
[7] = system: SNB-19 CNS
[8] = system: KM12 colon
[9] = system: OVCAR-3 ovarian
[10] = system: CAKI-1 renal

SMILES | GI50 [1] | TGI [1] | GI50 [2] | TGI [2] | GI50 [3] | TGI [3] | GI50 [4] | TGI [4] | GI50 [5] | TGI [5] | GI50 [6] | TGI [6] | GI50 [7] | TGI [7] | GI50 [8] | TGI [8] | GI50 [9] | TGI [9] | GI50 [10] | TGI [10]
COc1ccccc1CNCCCN1C(=O)c2ccc3c4c(ccc(c24)C1=O)C(=O)N(CCCNCCCCNCCCN)C3=O | 0.581 µM | 2.72 µM | 1.34 µM | 3.14 µM | 0.911 µM | 2.71 µM | 0.658 µM | 2.25 µM | 0.287 µM | 0.995 µM | 0.426 µM | 1.67 µM | 0.574 µM | 3.97 µM | 0.338 µM | 1.46 µM | 0.261 µM | 0.699 µM | 2.6 µM | 10.4 µM
CC(=O)OC(C(=O)[O][Ge]([CH3])([CH3])[CH3])c1ccccc1 (stereo not drawn) | > 100 µM | > 100 µM | > 100 µM | > 100 µM | > 100 µM | > 100 µM | > 100 µM | > 100 µM | > 100 µM | > 100 µM | > 100 µM | > 100 µM | > 100 µM | > 100 µM | > 100 µM | > 100 µM | > 100 µM | > 100 µM | > 100 µM | > 100 µM
Cn1c2c(c3ccccc31)CCN1C[C@@H]3CCCC[C@H]3C[C@@H]21 | 3.1 µM | > 100 µM | 2.08 µM | 7.07 µM | 2.75 µM | > 26.1 µM | 3.32 µM | > 36.2 µM | 2.61 µM | 8.06 µM | 2.87 µM | > 30 µM | 5.15 µM | > 100 µM | 2.97 µM | 9.97 µM | 1.95 µM | 4.74 µM | 2.92 µM | > 29.5 µM
CCOc1cc(Cl)c(C(C)NC(=O)c2cccc(OC)c2)cc1OCC (stereo not drawn) | 8.59 µM | > 100 µM | 0.561 µM | 21.9 µM | 37.4 µM | > 100 µM | 6.94 µM | > 100 µM | 4.23 µM | 44.6 µM | 5.01 µM | 34.3 µM | 12.6 µM | > 100 µM | 7.19 µM | > 100 µM | 4.19 µM | 29.4 µM | 11.1 µM | > 100 µM
CN1C(=O)C(N=Nc2ccc([N+](=O)[O-])cc2)SC1=S (stereo not drawn) | 5.78 µM and 14.1 µM | > 100 µM | 4.1 µM and 4.16 µM | 18.3 µM and 51 µM | 21 µM and 18 µM | > 100 µM | 9.55 µM and 12.2 µM | > 100 µM | 3.63 µM and 10.8 µM | 33.7 µM and > 100 µM | 6.57 µM and 7.08 µM | 58.1 µM and 70.4 µM | 6.62 µM and 11 µM | > 100 µM | 1.81 µM and 2.53 µM | 17.4 µM and > 100 µM | 2.7 µM and 10.9 µM | 12.9 µM and 71.9 µM | 1.18 µM and 3.88 µM | 7.8 µM and 50 µM
CC(=O)Oc1ccc2c(=O)c(C(C)=O)coc2c1 |  | > 100 µM |  | > 100 µM |  | > 100 µM |  | > 100 µM |  | > 100 µM |  | > 100 µM |  | > 100 µM |  | > 100 µM |  | > 100 µM |  | > 100 µM
CC[C@]12C=CCN3CC[C@@]4(c5ccc(OC)cc5N(C)[C@H]4[C@@](O)(C(=O)OC)[C@@H]1OC(=O)CCC(=O)O[C@H]1CC[C@H]4[C@@H]5CCC6=CC(=O)CC[C@@H]6[C@H]5CC[C@]14C)[C@@H]32 | 1.64 µM | > 50 µM | 1.38 µM | 9.42 µM | 2.07 µM | > 50 µM | 2.4 µM | > 50 µM | 1.6 µM | 11.4 µM | 1.75 µM | 7.21 µM | 2.31 µM | > 50 µM | 1.88 µM | > 50 µM | 1.73 µM | 31.9 µM | 1.56 µM | > 50 µM
Cc1cc(S(=O)(=O)Nc2nc3ccccc3c(=O)n2Cc2ccco2)c(S)cc1Cl | 48 µM | > 100 µM | 33.1 µM | > 100 µM | 83.6 µM | > 100 µM | 32.8 µM | 69.6 µM | 46.2 µM | > 100 µM | 31.5 µM | 84.5 µM |  | > 100 µM | 30.1 µM | > 100 µM | 30.5 µM | > 100 µM | 44.1 µM | > 100 µM
Cc1c(O)cccc1C(=O)N[C@@H](CSc1ccccc1)[C@H](O)CN1C[C@H]2CCCC[C@H]2C[C@H]1C(=O)NC(C)(C)C | 3.01 µM and 4.94 µM | 10.8 µM and 22.8 µM | 10.5 µM and 4.26 µM | 24.9 µM and 15.3 µM | 4.84 µM and 5.57 µM | 14 µM and 16.5 µM | 7.26 µM and 5 µM | 21.3 µM and 14.6 µM | 3.06 µM and 5.65 µM | 12 µM and 19.9 µM | 6.35 µM and 5.55 µM | 22.2 µM and 16.2 µM | 3.17 µM and 6.96 µM | 16.1 µM and > 43.8 µM | 3.45 µM and 4.99 µM | 10.4 µM and 20.1 µM | 2.62 µM and 5.24 µM | 9.46 µM and 16.2 µM | 2.57 µM and 9.32 µM | 6.56 µM and > 37.8 µM
COc1ccc(C2=C(c3ccccc3)C(=O)N3CCCC3C2)cc1 (stereo not drawn) | 0.195 µM | > 100 µM | > 100 µM | > 100 µM |  | > 100 µM | 39.8 µM | > 100 µM | 0.233 µM | > 100 µM | 3.11 µM | 98.2 µM | 8.01 µM | > 100 µM | 3.01 µM | > 100 µM | 57 µM | > 100 µM | 8.05 µM | > 100 µM
O=C(O)c1ccc(CSc2nc3ccccc3[nH]2)cc1 | > 100 µM | > 100 µM | > 100 µM | > 100 µM | > 100 µM | > 100 µM | > 100 µM | > 100 µM | > 100 µM | > 100 µM | > 100 µM | > 100 µM | > 100 µM | > 100 µM | > 100 µM | > 100 µM | > 100 µM | > 100 µM | > 100 µM | > 100 µM
CC[O-].CC[O-].O=C1C=C([O-])C(=O)c2ccccc21.O=C1C=C([O-])C(=O)c2ccccc21.[Ti+4] | 26 µM | > 100 µM | 22.5 µM | > 60.9 µM | > 82.8 µM | > 100 µM | > 100 µM | > 100 µM | 22.4 µM | > 100 µM | 100 µM | > 100 µM | > 84.5 µM | > 100 µM | > 90.8 µM | > 100 µM | > 100 µM | > 100 µM | > 100 µM | > 100 µM

Source: PubChem BioAssay (NCI)
